Data published in US20240368174A1, “Antiviral Heterocyclic Compounds” (Enanta Pharmaceuticals, Inc., priority 2023, published 2024).

Tested on: HMPV clinical isolate A2 strain TN 94-49
Experiment: HMPV antiviral assay, Method 2 (LLC-MK2 cells with CP-100-356, ATP-Lite)
Assay type: cell-based
Conditions: human metapneumovirus
Procedure, shortened: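 EC50 comes from a four-parameter fit of percent cell viability (ATP-Lite, normalized to virus-only and cell-only wells) after 7 days at 37 °C. Infection used HMPV A2 TN 94-49 at MOI 0.16 in LLC-MK2 cells, with 2 μM P-gp inhibitor CP-100-356 and 2 μg/mL TPCK-trypsin final; dose range 200 nM top, 2.5-fold, 10 points, duplicate.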

[1] = hMPV A2 TN/94-49, LLC-MK2 cells with CP-100-356, Method 2
[2] = 168 h, hMPV A2 TN/94-49, LLC-MK2 cells with 4 μM CP-100-356, 7 days, ATP-Lite

EC50 [1] [nM]	EC50 [2] [nM]	Structure (SMILES)
–	< 200	COc1cc(C(=O)NC[C@](O)(c2cc3c(c(-c4cc(C(F)(F)F)ncc4F)n2)OC[C@]3(C)C(N)=O)C(F)(F)F)cc2cn(C3CC3)nc12 [Example 845]
< 200	–	Cc1nccc(-c2nc([C@@](O)(CNC(=O)c3cc(OC4CC4)c4nn(C(F)F)cc4c3)c3cccc(F)c3)cc3c2OC[C@]3(C)C(N)=O)c1Cl [Example 604]
< 200	–	C[C@]1(C(N)=O)COc2c1cc([C@@](O)(CNC(=O)c1ccc3nc(C4CC4)oc3c1)c1ccccc1)nc2-c1cccc(Cl)c1Cl [Example 97]
< 200	–	COc1cc(C(=O)NC[C@@](O)(c2cccc(F)n2)c2cc3c(c(-c4cc(Cl)c(F)cc4F)n2)OC[C@]3(C)C(N)=O)cn2cc(C3CC3)nc12 [Example 154]
–	< 200	C[C@]1(C(N)=O)COc2c1cc([C@@](O)(CNC(=O)c1cc(OC3CC3)c3nn(C4(F)CC4)cc3c1)C1CC1)nc2-n1ncc2c(F)cccc21 [Example 651]
> 200	–	COc1cc(C(=O)NC[C@@](O)(c2ccccc2)c2cc3c(c(-c4cc(S(C)(=O)=O)ccc4F)n2)OC[C@]3(C)C(N)=O)cc2cn(C3(F)CC3)nc12 [Example 372]
< 200	–	COc1nccc(-c2nc([C@@](O)(CNC(=O)c3cc(OC)c4nc(C5CC5)cn4c3)C(F)(F)F)cc3c2OC[C@]3(C)C(N)=O)c1Cl [Example 589]
–	< 200	COc1nccc(-c2nc([C@@](O)(CNC(=O)c3cc(OC)c4nn(C5CC5)cc4c3)C3CC3)cc3c2OC[C@]3(C)C(N)=O)c1Cl [Example 782]
> 200	–	COc1cc(C(=O)NC[C@@](O)(c2cccc(F)c2)c2cc3c(c(-c4cc(F)c(F)cc4C(N)=O)n2)OC[C@]3(C)C(N)=O)cc2cn(C3(F)CC3)nc12 [Example 405]
> 200	–	C[C@]1(C(N)=O)COc2c1cc([C@@](O)(CNC(=O)c1ccc3nc(C4CC4)oc3c1)c1ccccc1)nc2-c1ccc2c(c1)OC(F)(F)O2 [Example 199]
< 200	–	COc1cc(C(=O)NC[C@@](O)(c2ccccc2)c2cc3c(c(-c4cccc(F)c4F)n2)OC[C@]3(C)C(N)=O)cc2cn(C3(F)CC3)nc12 [Example 367]
–	< 200	COc1cc(C(=O)NC[C@](O)(c2cc3c(c(-c4cc(C(F)(F)F)ncc4F)n2)OC[C@]3(C)C(N)=O)C2(F)CC2)cc2cn(C(F)F)nc12 [Example 667]
–	> 200	COc1nccc(-c2nc([C@@](O)(CNC(=O)c3cc(OC)n4nc(C5CC5)cc4c3)C(C)C)cc3c2OC[C@]3(C)C(N)=O)c1Cl [Example 890]

Second part, the compound before the results:

Structure (SMILES)	EC50 [1] [nM]	EC50 [2] [nM]
COc1cc(C(=O)NC[C@@](O)(c2cccc(F)c2)c2cc3c(c(-c4ccnc(C(F)F)c4Cl)n2)OC[C@]3(C)C(N)=O)cc2oc(C3CC3)nc12 [Example 567]	< 200	–
COc1cc(-c2nc([C@@](O)(CNC(=O)c3cc(OC)c4nn(C5CC5)cc4c3)c3ccccc3)cc3c2OC[C@]3(C)C(N)=O)c(F)cn1 [Example 635]	–	< 200
COc1cc(C(=O)NC[C@](O)(c2cc3c(c(-c4cc(F)ncc4Cl)n2)OC[C@]3(C)C(N)=O)C2CC2)cc2cn(C3CC3)nc12 [Example 384]	< 200	–
Cc1nc2c(OC(F)(F)F)cc(C(=O)NC[C@@](O)(c3ccccc3)c3cc4c(c(-c5cc(Cl)c(F)cc5F)n3)OC[C@]4(C)C(N)=O)cc2s1 [Example 188]	> 200	–
COc1cc(C(=O)NC[C@@](O)(c2ccc(F)cc2)c2cc3c(c(-c4ccnc(C(F)(F)F)c4F)n2)OC[C@]3(C)C(N)=O)cc2oc(C(F)F)nc12 [Example 541]	< 200	–
C[C@]1(C(N)=O)COc2c1cc([C@@](O)(CNC(=O)c1cc(OCCO)c3nn(C4CC4)cc3c1)C1CC1)nc2-c1cc(Cl)c(F)cc1F [Example 126]	< 200	–
COc1cc(C(=O)NC[C@@](O)(c2cc3c(c(-n4ccc5ccccc54)n2)OC[C@]3(C)C(N)=O)C2CC2)cc2cn(C3CC3)nc12 [Example 444]	> 200	–
COc1cc(-c2nc([C@@](O)(CNC(=O)c3cc(OC)c4nn(C5CC5)cc4c3)C3CC3)cc3c2OC[C@]3(C)C(N)=O)c(Cl)cn1 [Example 834]	–	> 200
COc1cc([C@](O)(CNC(=O)c2cc(OC)c3nn(C4CC4)cc3c2)c2cc3c(c(-c4cccc(Cl)c4Cl)n2)OC[C@]3(C)C(N)=O)ccn1 [Example 494]	< 200	–
COc1nccc(-c2nc([C@@](O)(CNC(=O)c3cc(OC)c4nc(C5CC5)cn4c3)C(C)C)cc3c2OC[C@]3(C)C(N)=O)c1Cl [Example 891]	–	> 200
C[C@]1(C(N)=O)COc2c1cc([C@@](O)(CNC(=O)c1cc(OC3CC3)c3ncc(Cl)cc3c1)c1ccccc1)nc2-c1ccc(F)c(Cl)c1Cl [Example 313]	< 200	–
COc1cc(C(=O)NC[C@](O)(c2cc3c(c(-c4cc(C(F)(F)F)c(F)cc4F)n2)OC[C@]3(C)C(N)=O)C2CC2)cc2cc(Cl)cnc12 [Example 316]	< 200	–
COc1cc(C(=O)NC[C@@](O)(c2ccccc2)c2cc3c(c(-c4ccnc(C)c4Cl)n2)OC[C@]3(C)C(N)=O)cc2cn(C3CC3)nc12 [Example 692]	–	< 200
C[C@]1(C(N)=O)COc2c1cc([C@@](O)(CNC(=O)c1cc(OC3CC3)c3nc(C4CC4)oc3c1)c1ccccc1)nc2-c1cc(Cl)c(F)cc1F [Example 233]	< 200	–
COc1cc(C(=O)NC[C@](O)(c2cc3c(c(-n4ncc5c4CCCC5)n2)OC[C@]3(C)C(N)=O)C2CC2)cc2cn(C(F)F)nc12 [Example 641]	–	> 200
COc1nccc(-c2nc([C@@](O)(CNC(=O)c3cc(OC)n4nc(C5CC5)cc4c3)C(F)(F)F)cc3c2OC[C@]3(C)C(N)=O)c1Cl [Example 590]	< 200	–
COc1cc(C(=O)NC[C@@](O)(c2ccccc2)c2cc3c(c(-c4cccc(Cl)c4Cl)n2)OC[C@]3(C)C(N)=O)cc2oc(C)nc12 [Example 95]	< 200	–
CC(C)c1nccc(-c2nc([C@@](O)(CNC(=O)c3cc(OC4CC4)c4nn(C5(F)CC5)cc4c3)C3CC3)cc3c2OC[C@]3(C)C(N)=O)c1Cl [Example 912]	–	> 200
COc1cc(C(=O)NC[C@](O)(c2cc3c(c(-c4ccnc(N(C)C)c4Cl)n2)OC[C@]3(C)C(N)=O)C2CC2)cc2cn(C3CC3)nc12 [Example 811]	–	< 200
COc1cc(C(=O)NC[C@](O)(c2cc3c(c(-c4ccnc(Cl)c4C)n2)OC[C@]3(C)C(N)=O)C2CC2)cc2cn(C3CC3)nc12 [Example 427]	< 200	–
COc1cc(C(=O)NC[C@@](O)(c2ccccc2)c2cc3c(c(-c4ccnc(C)c4Cl)n2)OC[C@]3(C)C(N)=O)cc2cn(C3(F)CC3)nc12 [Example 693]	–	< 200
COc1nccc(-c2nc([C@@](O)(CNC(=O)c3cc(OC4CC4)c4nn(C(F)F)cc4c3)C(F)(F)F)cc3c2OC[C@]3(C)C(N)=O)c1Cl [Example 587]	< 200	–
COc1nccc(-c2nc([C@@](O)(CNC(=O)c3cc(OC)c4nc(C(F)F)oc4c3)c3cccc(F)c3)cc3c2OC[C@]3(C)C(N)=O)c1Cl [Example 561]	< 200	–
COc1nccc(-c2nc([C@@](O)(CNC(=O)c3cc(OC4CC4)n4nc(C5CC5)cc4c3)C(F)(F)F)cc3c2OC[C@]3(C)C(N)=O)c1Cl [Example 607]	< 200	–
C[C@]1(C(N)=O)COc2c1cc([C@@](O)(CNC(=O)c1cc(OC3CC3)c3ncc(Cl)cc3c1)c1cccc(F)c1)nc2-c1cccc(Cl)c1Cl [Example 334]	< 200	–
COc1cc(C(=O)NC[C@](O)(c2cc3c(c(-c4cc(F)c(F)cc4F)n2)OC[C@]3(C)C(N)=O)C2CC2)cc2cc(Cl)cnc12 [Example 103]	< 200	–
